This is an account of results in patent publication US12606537B2, “Thiophene derivatives” (priority 2019, dated 2026).

The IC50 is the concentration at which inhibition is half-maximal. By Kd is commonly meant the constant that tells how readily two partners part at equilibrium. Low readings indicate tighter binding, high ones weaker binding.

Read-outs that look alike come from different tables or passages of the source.

One test concerns HIF2α-HIF1β complex. The experiment in a line: Cellular mechanistic assay: 786-O HRE-luc2P reporter assay. The class given is cell-based, human. As to the method:
This reporter assay was designed to monitor binding of the HIF2α-HIF1β complex to specific DNA fragment called hypoxia response element (HRE) in physiologically relevant cell line. […] HRE is present in promoters of various genes regulated by hypoxia inducible factors. […] As a result, this reporter assay allows monitoring of HIF2α-HIF1β activity by determining the activity of produced luciferase. Cell culture is performed in RPMI media supplemented with 10% FBS, Sodium Pyruvate, Penicillin/Streptomycin, Glutamine, 200 μg/mL Hygromycin Gold.
The assay was performed in 384 well white, opaque microtiterplate with transparent bottom (Greiner Bio-one, Frickenhausen). […] 50 μl of cell suspension (2000 cells) per well were dispensed in microtiter plates and incubated over night at 37° C. in a 5% CO2 incubator. Compounds were added with Labcyte Echo dispenser (fc 0.3% DMSO, 9 concentrations dilution raw starting at 30 μM). Plates were incubated for 48 h at 37° C. in a 5% CO2 incubator. After this 45 μl of prewarmed ONE-Glo™ EX Reagent were added per well. Plates were placed on an orbital shaker at 1200 rpm for 3 minutes. Plates were sealed and luminescence was measured a Tecan Spark 20M microplate reader (end-point measurement with 0.1 second reading time). Values were normalized to DMSO ctrl and wells without cells (only medium ctrl). Decrease in luminescence directly correlates with inhibition of HIF2α activity. EC50 values and % of effect values were calculated fitting a variable-slope sigmoidal function using Ryvu Therapeutics (formerly Selvita S.A.) DRC application or GraphPad Prism software.
A general note: A reporter such as luciferase makes a cellular process visible.

For the next test, the target named is T1, HIF2a (240-350)-G (Homo sapiens, UniProt Q99814).
T1 construct: The protein, HIF2a (240-350)-G, was prepared by recombinant overexpression; made in house
Description: ITC (isothermal titration calorimetry) binding. Here is the method: ITC measurements were performed with a VP-ITC microcalorimeter from MicroCal/Malvern (UK). For all titration experiments the protein and the respective compounds were formulated in 30 mM HEPES buffer pH 7.5, 150 mM NaCl and 5 mM ß-mercaptoethanol. The protein, HIF2a (240-350)-G, was prepared by recombinant overexpression and multistep chromatography purification. Compounds were used from concentrated DMSO stock solutions. The final protein concentration in the injection syringe was 100 μM. Ligand stock solutions of 10 mM in DMSO were diluted to 10 μM concentrations with buffer and loaded into the sample cell. All buffers were adjusted to a final concentration of 1% (v/v) DMSO. Both, the titrate and titrant solutions were degassed prior to loading the calorimeter cell and injection syringe. […] The integrated heat data were fit with a one-site binding model to determine the apparent values for affinity, enthalpy and stoichiometry of binding.
A general note: Isothermal titration calorimetry measures the heat released or taken up as one component is titrated into another.

Test [1] concerns the target T2, interaction of the PAS B domains of HIF-2α and HIF-1β (Homo sapiens, UniProt Q99814).
T2 construct: His6Gb1-TEV-GEFKGL-HIF2α (240-350aa)-G; His6 (N); Gb1 (protein G B1 domain) (N); TEV site (N)
The experiment in a line: AlphaScreen protein protein interaction assay. In kind it is biochemical. Here is the method:
For the assessment of functional disruption of the interaction of the PAS B domains of HIF-2α and HIF-1β an AlphaScreen assay was set-up. The assay was performed in 384 well light gray Perkin Elmer microtiter plates in a total volume of 7 μl. […] The detection of the protein protein interaction was performed by adding AlphaLISA® Anti-FLAG Acceptor beads (fc 20 μg/mL) and AlphaScreen® Nickel Chelate Donor beads (fc 9 μg/mL) (both Perkin Elmer) and the reaction was incubated for 240 min at 23° C. in the dark. If donor and acceptor beads get in close proximity to each other caused by interaction of HIF2alpha PAS B with HIF-1ß PAS B domain it results in a luminescence signal at 615 nm after excitation at 680 nm. The PPI disruption activity of a compound was calculated directly from the loss in Alphascreen signal. The AlphaScreen signal was measured with an Envision multimode reader (Perkin Elmer LAS Germany GmbH). The control value used was the inhibitor-free reaction. The pharmacological zero value used was determined in the absence of HIF-1ß. The inhibitory values (IC50) were calculated using Assay analyser from GeneData.
Background: In Alpha technology, singlet oxygen from a donor bead excites a nearby acceptor bead.

The mark [2] stands for this setting: Homo sapiens, 786-0, 48 h, read-out: HRE-luc2P reporter assay IC50, 786-O HRE-luc2P cells, 48 h incubation, luciferase luminescence.
Where [3] appears, read: read-out: HRE-luc2P reporter assay IC50, 786-O HRE-luc2P cells, 48 h incubation, luciferase luminescence.

T2 sequence (Q99814 240-350): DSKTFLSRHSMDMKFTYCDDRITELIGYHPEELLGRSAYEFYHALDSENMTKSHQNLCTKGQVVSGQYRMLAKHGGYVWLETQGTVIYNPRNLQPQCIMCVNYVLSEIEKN
T1 sequence (Q99814 240-350): as above

In the case of `CS(=O)(=O)c1sc(Oc2ccc(F)cc2)c2c1[C@H](O)C(F)(F)C2` [Example 29a, (4S)-5,5-difluoro-1-(4-fluorophenoxy)-3-methanesulfonyl-4H,5H,6H-cyclopenta[c]thiophen-4-ol], the IC50 (in the test with HIF2α-HIF1β complex (setting [2]); in test [1]) was greater than 1000 nM in each case. In addition, the Kd at HIF2a (240-350)-G was greater than 1000 nM.

For the compound `CS(=O)(=O)c1sc(Oc2cc(F)cc(Cl)c2)c2c1[C@H](O)C(F)(F)C2` [Example 30a, (4S)-1-(3-chloro-5-fluorophenoxy)-5,5-difluoro-3-methanesulfonyl-4H,5H,6H-cyclopenta[c]thiophen-4-ol], the IC50 (in the test on HIF2α-HIF1β complex (setting [2]); in test [1]) was greater than 1000 nM each time. This compound displayed a Kd on HIF2a (240-350)-G greater than 1000 nM.

In the case of `CC(Oc1sc(S(C)(=O)=O)c2c1CC(F)(F)[C@H]2O)C(F)F` (single isomer, unassigned) [Example 14a], the IC50 with HIF2α-HIF1β complex (setting [3]) was 50 to 1000 nM; in test [1] (read-out: AlphaScreen IC50, disruption of HIF-2α / HIF-1β (ARNT) PAS B interaction, recombinant proteins 143 nM each) it was less than 50 nM.

Regarding `CS(=O)(=O)c1sc(Oc2cccc(C#N)c2)c2c1[C@H](O)C(F)(F)C2` [Example 31a, 3-{[(4S)-5,5-difluoro-4-hydroxy-3-methanesulfonyl-4H,5H,6H-cyclopenta[c]thiophen-1-yl]oxy}benzonitrile], the concentration for half-maximal inhibition (IC50) (in the test on HIF2α-HIF1β complex (setting [2]); in test [1]) was greater than 1000 nM each time. On HIF2a (240-350)-G, this compound displayed a Kd greater than 1000 nM.

Take `CS(=O)(=O)c1sc(OCCOC(F)(F)F)c2c1[C@H](O)C(F)(F)C2` [Example 23a, (4S)-5,5-difluoro-3-methanesulfonyl-1-[2-(trifluoromethoxy)ethoxy]-4H,5H,6H-cyclopenta[c]thiophen-4-ol]: the 50% inhibitory concentration (IC50) with HIF2α-HIF1β complex (setting [2]) is greater than 1000 nM; in test [1], less than 50 nM.

For `CS(=O)(=O)c1sc(Oc2ccc(F)c(F)c2)c2c1C(O)C(F)(F)C2` (racemic) [Example 24a, 1-(3,4-difluorophenoxy)-5,5-difluoro-3-methanesulfonyl-4H,5H,6H-cyclopenta[c]thiophen-4-ol], the IC50 (in the test on HIF2α-HIF1β complex (setting [2]); in test [1]) was greater than 1000 nM throughout. This compound also showed a Kd on HIF2a (240-350)-G greater than 1000 nM.

With `CCC(Oc1sc(S(C)(=O)=O)c2c1CC(F)(F)[C@H]2O)C(F)(F)F` (single isomer, unassigned) [Example 9a], the values for the IC50 (in the test on HIF2α-HIF1β complex (setting [2]); in test [1]) were greater than 1000 nM and less than 50 nM, respectively. In addition, the Kd on HIF2a (240-350)-G was in the range of 100 to 1000 nM.

Regarding `CC(Oc1sc(S(C)(=O)=O)c2c1CC(F)(F)[C@H]2O)C(F)F` (single isomer, unassigned) [Example 10a], the IC50 in the test on HIF2α-HIF1β complex (setting [3]) is greater than 1000 nM; in test [1] it was less than 50 nM.

Regarding `CCOc1sc(S(C)(=O)=O)c2c1CC(F)(F)[C@H]2O` [Example 32a, (4S)-1-ethoxy-5,5-difluoro-3-methanesulfonyl-4H,5H,6H-cyclopenta[c]thiophen-4-ol], the IC50 (in the test with HIF2α-HIF1β complex (setting [2]); in test [1]) was greater than 1000 nM in each case.

On to `CS(=O)(=O)c1sc(Oc2ccc(F)c(F)c2)c2c1[C@H](O)C(F)(F)C2` [Example 34a, (4S)-1-(3,4-difluorophenoxy)-5,5-difluoro-3-methanesulfonyl-4H,5H,6H-cyclopenta[c]thiophen-4-ol], for which the half-maximal inhibitory concentration (IC50) in the test with HIF2α-HIF1β complex (setting [2]) was greater than 1000 nM; in test [1], 50 to 1000 nM.

Consider `CS(=O)(=O)c1sc(OC2CCOCC2)c2c1[C@H](O)C(F)(F)C2` [Example 22a, (4S)-5,5-difluoro-3-methanesulfonyl-1-(oxan-4-yloxy)-4H,5H,6H-cyclopenta[c]thiophen-4-ol], for which the Kd at HIF2a (240-350)-G is 100 to 1000 nM. Besides, the IC50 in test [1] is less than 50 nM.

On to `COC1(COc2sc(S(C)(=O)=O)c3c2CC(F)(F)[C@H]3O)CCC1` [Example 16a, (4S)-5,5-difluoro-3-methanesulfonyl-1-[(1-methoxycyclobutyl)methoxy]-4H,5H,6H-cyclopenta[c]thiophen-4-ol], for which the IC50 is greater than 1000 nM in the test on HIF2α-HIF1β complex (setting [2]) and less than 50 nM in test [1]. In addition, the Kd at HIF2a (240-350)-G fell in the range of 100 to 1000 nM.

Turning to `CS(=O)(=O)c1sc(OCC(F)(F)F)c2c1[C@H](O)[C@@H](F)C2` [Example 17a, (4S,5S)-5-fluoro-3-methanesulfonyl-1-(2,2,2-trifluoroethoxy)-4H,5H,6H-cyclopenta[c]thiophen-4-ol], the 50% inhibitory concentration (IC50) in the test on HIF2α-HIF1β complex (setting [2]) was 50 to 1000 nM; in test [1] it was less than 50 nM.
